Counter-ions that a name gives are not always drawn.
Experiments:
[1] = target: T1, human TLR8 (Homo sapiens, UniProt Q9NR97); test: TLR8 inhibition reporter assay (HEK-Blue cells, SEAP reporter, R848 stimulation); type: cell-based; conditions: HEK-Blue cells overexpressing human TLR8, R848 15.9 μM
T1 construct: host or cells: HEK-Blue cells
T1 sequence (Q9NR97 27-1041): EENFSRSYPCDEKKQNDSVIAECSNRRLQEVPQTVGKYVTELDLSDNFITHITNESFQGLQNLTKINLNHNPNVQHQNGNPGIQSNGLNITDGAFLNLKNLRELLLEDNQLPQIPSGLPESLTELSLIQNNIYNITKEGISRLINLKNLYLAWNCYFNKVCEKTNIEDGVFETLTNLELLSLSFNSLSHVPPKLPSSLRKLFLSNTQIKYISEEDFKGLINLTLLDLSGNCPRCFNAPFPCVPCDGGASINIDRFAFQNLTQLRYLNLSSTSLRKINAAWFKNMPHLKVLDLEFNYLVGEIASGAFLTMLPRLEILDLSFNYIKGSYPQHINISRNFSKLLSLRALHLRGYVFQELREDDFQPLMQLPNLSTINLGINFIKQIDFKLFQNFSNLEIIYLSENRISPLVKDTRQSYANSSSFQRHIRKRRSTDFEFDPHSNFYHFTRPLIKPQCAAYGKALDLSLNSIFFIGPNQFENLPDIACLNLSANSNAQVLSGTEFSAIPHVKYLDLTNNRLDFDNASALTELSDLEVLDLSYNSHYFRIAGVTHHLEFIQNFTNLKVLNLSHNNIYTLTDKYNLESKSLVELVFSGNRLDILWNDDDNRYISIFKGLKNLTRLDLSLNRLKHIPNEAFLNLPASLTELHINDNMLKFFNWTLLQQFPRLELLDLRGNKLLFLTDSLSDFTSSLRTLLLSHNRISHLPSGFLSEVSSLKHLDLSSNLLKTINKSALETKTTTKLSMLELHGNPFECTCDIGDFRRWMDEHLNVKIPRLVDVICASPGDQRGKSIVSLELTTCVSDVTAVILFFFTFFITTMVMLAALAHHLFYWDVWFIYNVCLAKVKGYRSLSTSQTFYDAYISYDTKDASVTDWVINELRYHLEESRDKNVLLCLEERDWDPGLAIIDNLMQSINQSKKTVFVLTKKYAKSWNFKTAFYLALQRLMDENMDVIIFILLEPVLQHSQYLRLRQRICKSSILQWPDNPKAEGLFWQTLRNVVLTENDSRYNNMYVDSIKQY
Procedure, shortened: (§1)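 HEK-Blue reporter cells (15,000/well TLR7, 20,000 TLR8) exposed to compound over 0.05 nM–50 μM, agonist-stimulated (R848 for TLR8, gardiquimod for TLR7), 22 h at 37 °C, 5% CO2. SEAP read with HEK-Blue Detection; % inhibition relative to agonist-plus-DMSO and known-inhibitor controls.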

[2] = target: T2, human TLR7 (Homo sapiens, UniProt Q9NYK1); test: TLR7 inhibition reporter assay (HEK-Blue cells, SEAP reporter, gardiquimod stimulation); type: cell-based; conditions: HEK-Blue cells overexpressing human TLR7, gardiquimod 7.5 μM
T2 construct: host or cells: HEK-Blue cells
T2 sequence (Q9NYK1 27-1049): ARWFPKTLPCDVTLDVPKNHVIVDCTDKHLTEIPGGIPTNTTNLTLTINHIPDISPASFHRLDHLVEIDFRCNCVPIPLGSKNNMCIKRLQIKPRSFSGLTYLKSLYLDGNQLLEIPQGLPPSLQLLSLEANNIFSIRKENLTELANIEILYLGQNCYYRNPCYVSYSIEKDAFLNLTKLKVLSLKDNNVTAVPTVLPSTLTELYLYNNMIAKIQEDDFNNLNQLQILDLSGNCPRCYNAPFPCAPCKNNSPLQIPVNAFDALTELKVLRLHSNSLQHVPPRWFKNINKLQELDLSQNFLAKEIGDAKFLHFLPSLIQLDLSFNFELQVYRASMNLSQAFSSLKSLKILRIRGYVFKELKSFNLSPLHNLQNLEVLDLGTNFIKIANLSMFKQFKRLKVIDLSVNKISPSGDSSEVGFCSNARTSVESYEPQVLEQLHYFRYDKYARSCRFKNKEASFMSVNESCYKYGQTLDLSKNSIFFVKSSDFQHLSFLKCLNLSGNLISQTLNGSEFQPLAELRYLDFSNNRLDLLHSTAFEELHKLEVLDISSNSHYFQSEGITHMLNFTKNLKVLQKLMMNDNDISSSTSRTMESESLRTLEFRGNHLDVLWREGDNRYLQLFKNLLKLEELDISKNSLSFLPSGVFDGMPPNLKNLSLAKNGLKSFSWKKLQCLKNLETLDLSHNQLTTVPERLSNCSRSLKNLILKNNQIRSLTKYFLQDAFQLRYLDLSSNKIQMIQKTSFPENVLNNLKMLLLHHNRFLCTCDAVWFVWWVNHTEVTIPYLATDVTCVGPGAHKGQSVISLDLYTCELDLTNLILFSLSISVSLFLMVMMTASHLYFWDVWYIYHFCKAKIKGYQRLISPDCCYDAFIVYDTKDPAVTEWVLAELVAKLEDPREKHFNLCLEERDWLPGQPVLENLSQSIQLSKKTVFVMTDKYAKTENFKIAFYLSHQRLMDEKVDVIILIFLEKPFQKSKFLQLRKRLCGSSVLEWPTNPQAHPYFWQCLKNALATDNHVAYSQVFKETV
Procedure, shortened: as §1

IC50 [1]	IC50 [2]	SMILES
213 nM	70 nM	CCc1c(-c2ccc(OC)c(OC)c2)[nH]c2cc(C)c(C3CCN(CCNC)CC3)cc12 [Example 188, 2-(4-(2-(3,4-dimethoxyphenyl)-3-ethyl-6-methyl-1H-indol-5-yl)piperidin-1-yl)-N-methylethanamine-di-trifluoroacetic acid]
25 nM	13 nM	COc1ccc(-c2[nH]c3ccc(C4CCN(C(=O)CNCC(C)O)CC4)cc3c2C(C)C)cc1OC (stereo not shown) [Example 210, 1-(4-(2-(3,4-dimethoxyphenyl)-3-isopropyl-1H-indol-5-yl)piperidin-1-yl)-2-((2-hydroxypropyl)amino)ethan-1-one]
39 nM	33 nM	COc1ccc(-c2[nH]c3ccc(C4CCN(C(=O)CNCC(C)(C)CO)CC4)cc3c2C(C)C)cc1OC [Example 219, 1-(4-(2-(3,4-dimethoxyphenyl)-3-isopropyl-1H-indol-5-yl)piperidin-1-yl)-2-((3-hydroxy-2,2-dimethylpropyl)amino)ethan-1-one]
620 nM	430 nM	CCc1c(-c2ccc(OC)c(OC)c2)[nH]c2c(F)cc(C3CCNCC3)cc12 [Example 189, 2-(3,4-dimethoxyphenyl)-3-ethyl-7-fluoro-5-(piperidin-4-yl)-1H-indole]
345 nM	1620 nM	CCOC(=O)c1c(C)[nH]c(CN2CCC(N3CCC(c4ccc5[nH]c(-c6ccc(OC)c(OC)c6)c(CC)c5c4)CC3)CC2)c1C [Example 127, ethyl 5-((4-(2-(3,4-dimethoxyphenyl)-3-ethyl-1H-indol-5-yl)-[1,4′-bipiperidin]-1′-yl)methyl)-2,4-dimethyl-1H-pyrrole-3-carboxylate]
163 nM	36 nM	COc1ccc(-c2[nH]c3ccc(C4CCN(C(=O)CNC5CCC(N(C)C)CC5)CC4)cc3c2C(C)C)cc1OC (stereo not shown) [Example 215, 1-(4-(2-(3,4-dimethoxyphenyl)-3-isopropyl-1H-indol-5-yl)piperidin-1-yl)-2-((4-(dimethylamino)cyclohexyl)amino)ethan-1-one]
25 nM	113 nM	COc1ccc(-c2[nH]c3ccc(C4CCN(C5CCNCC5)CC4)cc3c2C(C)C)cc1OC [Example 197, 5-([1,4′-bipiperidin]-4-yl)-2-(3,4-dimethoxyphenyl)-3-isopropyl-1H-indole dihydrochloride]
19 nM	120 nM	COc1ccc(-c2[nH]c3ccc(C4CCN(C5CCN(CC(C)C)CC5)CC4)cc3c2C(C)C)cc1OC [Example 199, 2-(3,4-dimethoxyphenyl)-5-(1′-isobutyl-[1,4′-bipiperidin]-4-yl)-3-isopropyl-1H-indole]

From US11180474B2 (BRISTOL-MYERS SQUIBB COMPANY, priority 2016, dated 2021)
